The record followed here is ChEMBL document CHEMBL1159340, “Antibacterial diterpenes from Calceolaria pinifolia” (J Nat Prod, 2003).

In brackets after ≈: the same amount, converted by molar mass.

The test system of data set [1] is Bacillus subtilis. Put plainly: Inhibition of DNA synthesis in Bacillus subtilis assessed as incorporation of [3H]thymidine at 0.25 ug/mL by LKB Betaplate scintillation counter relative to control. It counts as functional. Also noted: scale not given: the % may be the effect or the level left.
The test system of data set [2] is Bacillus subtilis. Description: Inhibition of protein synthesis in Bacillus subtilis assessed as incorporation of [3H]amino acid at 0.25 ug/mL by LKB Betaplate scintillation counter relative to control. It counts as functional. Also noted: scale not given: the % may be the effect or the level left.
Data set [3] concerns Bacillus subtilis. Put plainly: Inhibition of RNA synthesis in Bacillus subtilis assessed as incorporation of [3H]uridine at 0.25 ug/mL by LKB Betaplate scintillation counter relative to control. It counts as functional. Also noted: scale not given: the % may be the effect or the level left.
Data set [4] concerns Bacillus subtilis. Description: Inhibition of protein synthesis in Bacillus subtilis assessed as [3H]amino acid uptake at 0.25 ug/mL by LKB Betaplate scintillation counter relative to control. It counts as functional. Also noted: scale not given: the % may be the effect or the level left.
The subject of data set [5] is Bacillus subtilis. Description: Inhibition of RNA synthesis in Bacillus subtilis assessed as [3H]uridine uptake at 0.25 ug/mL by LKB Betaplate scintillation counter relative to control. In kind it is functional. Also noted: scale not given: the % may be the effect or the level left.
Data set [6] has as its system Bacillus subtilis. Put plainly: Inhibition of DNA synthesis in Bacillus subtilis assessed as [3H]thymidine uptake at 0.25 ug/mL by LKB Betaplate scintillation counter relative to control. It counts as functional. Also noted: scale not given: the % may be the effect or the level left.
The subject of data set [7] is Staphylococcus aureus. Put plainly: Antimicrobial activity against methicillin-susceptible Staphylococcus aureus 375 after 18 hrs by microbroth dilution method. In kind it is functional. (In general: In broth dilution the organism is exposed to a series of concentrations in liquid medium.)
Data set [8] has as its system Staphylococcus aureus. Put plainly: Antimicrobial activity against methicillin-resistant Staphylococcus aureus 310 after 18 hrs by microbroth dilution method. In kind it is functional.
Data set [9] deals with Bacillus subtilis. Description: Antimicrobial activity against Bacillus subtilis 327 after 18 hrs by microbroth dilution method. In kind it is functional.
Another data set concerns Escherichia coli. Put plainly: Antimicrobial activity against Escherichia coli imp 389 after 18 hrs by microbroth dilution method. In kind it is functional.
Data set [10] is described as follows: Toxicity in human RBC assessed as hemolysis at 2 ug/ml after 2 hrs. In kind it is cell-based, Erythrocyte. Conditions: red blood cells (RBC), read-out: Activity.
Data set [11] in a line: Toxicity in human RBC assessed as hemolysis at 1 ug/ml after 2 hrs. To be noted: red blood cells (RBC), read-out: Activity. It counts as cell-based, Erythrocyte.
Data set [12] can be described thus: Toxicity in human RBC assessed as hemolysis at 4 ug/ml after 2 hrs. It counts as cell-based, Erythrocyte. Conditions: red blood cells (RBC), read-out: Activity.
Data set [13] is described as follows: Toxicity in human RBC assessed as hemolysis at 8 ug/ml after 2 hrs. In kind it is cell-based, Erythrocyte. To be noted: red blood cells (RBC), read-out: Activity.
The nature of data set [14]: Toxicity in human RBC assessed as hemolysis at 0.5 ug/ml after 2 hrs. It counts as cell-based, Erythrocyte. Conditions: red blood cells (RBC), read-out: Activity.
Data set [15] in a line: Toxicity in human RBC assessed as hemolysis at 16 ug/ml after 2 hrs. It counts as cell-based, Erythrocyte. Conditions: red blood cells (RBC), read-out: Activity.

As to `O=C(O)c1cn(C2CC2)c2cc(N3CCNCC3)c(F)cc2c1=O` [CIPROFLOXACIN], the Activity in the data set on Bacillus subtilis [1] is listed as 61%; in the data set on Bacillus subtilis [2], 94%; with Bacillus subtilis [3], 94%; with Bacillus subtilis [4] it was 104%; in the data set on Bacillus subtilis [5], 100%; in the data set on Bacillus subtilis [6] it was 73%.

One may read the MIC as the lowest concentration that inhibits growth of the organism. Regarding `CC1(C)S[C@@H]2[C@H](NC(=O)Cc3ccccc3)C(=O)N2[C@H]1C(=O)O` [PENICILLIN G], the minimum inhibitory concentration (MIC) in the data set on Staphylococcus aureus [7] is 0.03 µg/mL (≈ 0.0897 µM); against Staphylococcus aureus [8], 128 µg/mL (≈ 383 µM); in the data set with Bacillus subtilis [9], 0.03 µg/mL (≈ 0.0897 µM); with Escherichia coli, 1 µg/mL (≈ 2.99 µM).

As for `C=C[C@]1(C)CCC2=C(CC[C@@H]3[C@](C)(CO)CCC[C@@]23C)C1`, the MIC against Staphylococcus aureus [7] was 32 µg/mL (≈ 111 µM); in the data set with Staphylococcus aureus [8] it was 64 µg/mL (≈ 222 µM); against Bacillus subtilis [9] it was 32 µg/mL (≈ 111 µM); against Escherichia coli it was over 128 µg/mL.

Turning to `CC(C)c1ccc2c(c1)CC[C@H]1[C@](C)(CO)CCC[C@]21C` [POMIFERIN A], the MIC in the data set with Staphylococcus aureus [7] was 4 µg/mL (≈ 14 µM); with Staphylococcus aureus [8], 4 µg/mL (≈ 14 µM); in the data set with Bacillus subtilis [9], 8 µg/mL (≈ 27.9 µM); with Escherichia coli, over 128 µg/mL.

In the case of `C[C@@H]1[C@H](O)[C@@H](C)/C=C/C=C/C=C/C=C/C=C/C=C/C=C/[C@H](O[C@@H]2O[C@H](C)[C@@H](O)[C@H](N)[C@@H]2O)C[C@@H]2O[C@](O)(C[C@@H](O)C[C@@H](O)[C@H](O)CC[C@@H](O)C[C@@H](O)CC(=O)O[C@H]1C)C[C@H](O)[C@H]2C(=O)O` [AMPHOTERICIN B], the hemolysis at 2 h, 2 ug/ml in [10] worked out at 27.5%. Further, the hemolysis at 2 h, 1 ug/ml in data set [11] came to 9.7%. In data set [12], the hemolysis at 2 h, 4 ug/ml was 74.6%. The hemolysis at 2 h, 8 ug/ml in [13] amounted to 96.9%. Also, in data set [14], the hemolysis at 2 h, 0.5 ug/ml was found to be 0%. In data set [15], the hemolysis at 2 h, 16 ug/ml is 118%.

Turning to `C=C[C@]1(C)CC=C2C(CC[C@@H]3[C@](C)(C(=O)O)CCC[C@@]23C)C1` (some centres undefined), the MIC was 16 µg/mL (≈ 52.9 µM) in the data set on Staphylococcus aureus [7], 32 µg/mL (≈ 106 µM) with Staphylococcus aureus [8], 32 µg/mL (≈ 106 µM) in the data set with Bacillus subtilis [9] and over 128 µg/mL in the data set with Escherichia coli.

Consider `CO[C@H]1/C=C/O[C@@]2(C)Oc3c(C)c(O)c4c(O)c(c(/C=N/N5CCN(C)CC5)c(O)c4c3C2=O)NC(=O)/C(C)=C\C=C\[C@H](C)[C@H](O)[C@@H](C)[C@@H](O)[C@@H](C)[C@H](OC(C)=O)[C@@H]1C` [RIFAMPIN], for which the Activity in the data set with Bacillus subtilis [1] is recorded as 108%; in the data set on Bacillus subtilis [2], 25%; with Bacillus subtilis [3] it was 29%; in the data set on Bacillus subtilis [4], 90%; in the data set with Bacillus subtilis [5], 143%; in the data set with Bacillus subtilis [6], 94%.
